Data as given in US20250320213A1, “Nitrogen-Containing Heterocyclic Compounds” (Pfizer Inc., priority 2024, published 2025).
Read-outs that look alike come from different tables or passages of the source.

Columns and labels:
[1] = test system: CCL17 secretion in peripheral human whole blood; test: Human Whole Blood (HWB) CCL17 TR-FRET Assay (IL-13 stimulated CCL17 secretion); type: cell-based
Description: The IC50 (half-maximal concentration required for inhibition) of compounds for the inhibition of CCL17 secretion in peripheral human whole blood, stimulated through the IL-13-IL-13 receptor/IL-4 receptor pathway was evaluated with a TR-FRET sandwich ELISA CCL17 (TARC) Assay Kit (Bioauxilium).
Test compounds (solubilized and serially diluted in DMSO, in an 11 point, 3-fold dilution series in duplicate) were spotted, 80 nL per well, into a 384 well v-bottom polypropylene plate. Human whole blood was collected from a peripheral vein, 714 units of sodium heparin was added for every 50 mL of blood collected. Sixty μL per well of blood was added to the compound plate. The blood plate was incubated for two hours at 37° C. After two hours, CCL17 production was stimulated with the addition of 20 μL per well of IL13 (R&D Systems) in HBSS with calcium and magnesium, with a final concentration of 10 ng/mL IL13. The plate containing blood, compound, and IL-13 was incubated at 37° C. for 48 hours, to allow for CCL17 production. After 48 hours, the plate was centrifuged at 1,500 revolutions per minute (RPM) for 7 minutes, with no braking. The CCL17 TR-FRET Assay Kit detection reagent was prepared according to kit instructions and 4 μL per well of the antibody cocktail was added to a 384-well white low volume non-binding coated plate (Corning). Sixteen μL of serum from the centrifuged blood plate was transferred to the detection plate containing the TR-FRET antibody cocktail. The plate was centrifuged briefly, then covered and incubated 16 hours at room temperature. The plate was then read on an EnVision 2105 multilabel reader (PerkinElmer) with settings for TR-FRET Ratio=10,000×(fluorescence intensity 665 nm/fluorescence intensity 615 nm).

STAT6 = target: T1, STAT6 (Homo sapiens, UniProt P42226); test: STAT6 Reporter Luciferase Assay (IL-13 stimulated HaCaT keratinocyte NanoLuc reporter cells); type: cell-based; settings: read-out: Reporter EC50
T1 construct: stably transfected HaCaT keratinocyte cell line, which expresses NanoLuc luciferase reporter gene under the transcriptional control of the STAT6 responsive promoter; endogenous in cells; host or cells: HaCaT keratinocyte reporter cell line (stably transfected with a NanoLuc reporter)
T1 sequence (P42226 1-847): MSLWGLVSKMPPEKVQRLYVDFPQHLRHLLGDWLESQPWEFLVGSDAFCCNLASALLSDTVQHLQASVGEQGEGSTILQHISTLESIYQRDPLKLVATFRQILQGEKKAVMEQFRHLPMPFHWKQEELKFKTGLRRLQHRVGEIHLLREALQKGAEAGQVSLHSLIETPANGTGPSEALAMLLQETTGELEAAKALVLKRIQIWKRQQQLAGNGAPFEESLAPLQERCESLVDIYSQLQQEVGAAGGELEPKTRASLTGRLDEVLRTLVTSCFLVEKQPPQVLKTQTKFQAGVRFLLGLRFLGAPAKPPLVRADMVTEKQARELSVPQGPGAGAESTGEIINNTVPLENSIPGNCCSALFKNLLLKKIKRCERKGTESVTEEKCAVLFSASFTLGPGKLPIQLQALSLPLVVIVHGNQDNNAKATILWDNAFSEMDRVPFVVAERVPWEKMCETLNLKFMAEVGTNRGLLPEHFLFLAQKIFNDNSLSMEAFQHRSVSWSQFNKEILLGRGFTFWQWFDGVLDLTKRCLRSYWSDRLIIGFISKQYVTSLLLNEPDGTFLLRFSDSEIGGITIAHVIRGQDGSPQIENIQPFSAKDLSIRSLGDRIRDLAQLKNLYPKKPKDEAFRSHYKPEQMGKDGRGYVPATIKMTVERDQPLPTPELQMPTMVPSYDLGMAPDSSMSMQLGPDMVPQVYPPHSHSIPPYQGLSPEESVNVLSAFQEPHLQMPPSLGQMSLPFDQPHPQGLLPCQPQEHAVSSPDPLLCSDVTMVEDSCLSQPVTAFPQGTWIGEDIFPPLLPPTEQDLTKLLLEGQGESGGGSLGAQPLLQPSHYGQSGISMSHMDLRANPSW
Procedure, shortened: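 Luminescence from a NanoLuc reporter driven by the STAT6-responsive IL-13Ra2 promoter in HaCaT keratinocytes serves as the read-out. Compounds are given 2 h before a 4 h stimulation with 0.12 nM IL-13.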

[2] = Homo sapiens, 48 h, inhibition of CCL17 secretion in human whole blood, 10 ng/mL IL13, 48 hours
[3] = STAT6 NanoLuc luciferase reporter, IL-13 stimulated HaCaT keratinocyte cells
[4] = Homo sapiens, 48 h, human whole blood, 10 ng/mL IL13, 48 hours
[5] = IL-13 stimulated HaCaT STAT6 NanoLuc reporter cells

Compound | IC50 [1, 2] [nM] | EC50 (STAT6; [3]) [nM] | EC50 (STAT6; [5]) [nM] | other results
CNC(=O)Nc1ccc(CNC(=O)c2nn(C(C)C)c3c2CN(c2ccc(C(=O)N(C)C)cn2)CC3)cc1 [Example 134, 5-(5-(dimethylcarbamoyl)pyridin-2-yl)-1-isopropyl-N-(4-(3-methylureido)benzyl)-4,5,6,7-tetrahydro-1H-pyrazolo[4,3-c]pyridine-3-carboxamide] | 46 | 7 | – | –
CC(C)n1nc(C(=O)NCc2ccc(NC(=O)N3CCC4(CNCCO4)C3)cc2)c2c1CCN(c1ccc(C(=O)N(C)C)cn1)C2 (racemic) [Example 164, rac-(R)-N-(4-((5-(5-(dimethylcarbamoyl)pyridin-2-yl)-1-isopropyl-4,5,6,7-tetrahydro-1H-pyrazolo[4,3-c]pyridine-3-carboxamido)methyl)phenyl)-6-oxa-2,9-diazaspiro[4.5]decane-2-carboxamide] | 45 | 13 | – | –
CC(C)n1nc(C(=O)NCc2ccc(NC(=O)N(C)C)cc2)c2c1CCN(c1ccc(-n3ccccc3=O)cn1)C2 [Example 108, N-(4-(3,3-dimethylureido)benzyl)-1-isopropyl-5-(2-oxo-2H-[1,3′-bipyridin]-6′-yl)-4,5,6,7-tetrahydro-1H-pyrazolo[4,3-c]pyridine-3-carboxamide] | 536 | 30 | – | –
CC(C)n1nc(C(=O)NCc2ccc(NC(=O)N(C)C)cc2)c2c1CCN(c1ccc(N3C[C@@H](C)CC3=O)cn1)C2 [Example 66, (S)-N-(4-(3,3-dimethylureido)benzyl)-1-isopropyl-5-(5-(4-methyl-2-oxopyrrolidin-1-yl)pyridin-2-yl)-4,5,6,7-tetrahydro-1H-pyrazolo[4,3-c]pyridine-3-carboxamide] | 89 | 13 | – | –
CN(C)C(=O)Nc1ccc(CNC(=O)c2nn(C)c3c2CN(c2ccc(C(=O)N(C)C)cn2)CC3)cc1 [Example 14, 5-(5-(dimethylcarbamoyl)pyridin-2-yl)-N-(4-(3,3-dimethylureido)benzyl)-1-methyl-4,5,6,7-tetrahydro-1H-pyrazolo[4,3-c]pyridine-3-carboxamide] | 260 | 29 | – | –
CC(C)n1nc(C(=O)NCc2ccc(NC(=O)N3CCC(F)(F)C3)cc2)c2c1[C@@H](C)CN(c1ccc(C(=O)N(C)C)cn1)C2 [Example 590, (S)-N-(4-(3,3-difluoropyrrolidine-1-carboxamido)benzyl)-5-(5-(dimethylcarbamoyl)pyridin-2-yl)-1-isopropyl-7-methyl-4,5,6,7-tetrahydro-1H-pyrazolo[4,3-c]pyridine-3-carboxamide] | – | – | 0.4 | IC50 [1, 4]: 10 nM
CCC1Cc2c(c(C(=O)NCc3ccc(NC(=O)N(C)C)cc3)nn2C)CN1c1ccc(C(=O)N(C)C)cn1 (single isomer, unassigned) [Example 269, rel-(R or S)-5-(5-(dimethylcarbamoyl)pyridin-2-yl)-N-(4-(3,3-dimethylureido)benzyl)-6-ethyl-1-methyl-4,5,6,7-tetrahydro-1H-pyrazolo[4,3-c]pyridine-3-carboxamide] | – | – | 87 | IC50 ([1]; human whole blood, IL-13 stimulated, 48 hours): 834 nM
CC1c2c(C(=O)NCc3ccc(NC(=O)N(C)C)cc3)nn(C)c2CCN1c1ccc(C(=O)N(C)C)cn1 (racemic) [Example 55, rac-(R)-5-(5-(dimethylcarbamoyl)pyridin-2-yl)-N-(4-(3,3-dimethylureido)benzyl)-1,4-dimethyl-4,5,6,7-tetrahydro-1H-pyrazolo[4,3-c]pyridine-3-carboxamide] | 12 | 10 | – | –
CC(C)n1nc(C(=O)NCc2ccc(NC(=O)N(C)C)cc2)c2c1[C@@H](C)CN(c1ncc(C(=O)N3Cc4cccnc4C3)cn1)C2 [Example 346, (S)-5-(5-(6,7-dihydro-5H-pyrrolo[3,4-b]pyridine-6-carbonyl)pyrimidin-2-yl)-N-(4-(3,3-dimethylureido)benzyl)-1-isopropyl-7-methyl-4,5,6,7-tetrahydro-1H-pyrazolo[4,3-c]pyridine-3-carboxamide] | – | – | 2 | IC50 ([1]; Homo sapiens, 48 h, human whole blood, IL-13 stimulated): 13 nM
CC(C)n1nc(C(=O)NCc2ccc(NC(=O)N3CCN(C)CC3)cc2Cl)c2c1[C@@H](C)CN(c1ccc(C(=O)N(C)C)cc1)C2 [Example 712, (S)-N-(2-chloro-4-(4-methylpiperazine-1-carboxamido)benzyl)-5-(4-(dimethylcarbamoyl)phenyl)-1-isopropyl-7-methyl-4,5,6,7-tetrahydro-1H-pyrazolo[4,3-c]pyridine-3-carboxamide] | – | – | 3 | IC50 ([1]; Homo sapiens, 48 h, human whole blood, IL-13 10 ng/mL): 64 nM
CC(C)n1nc(C(=O)NCc2ccc(C(=O)NC3CCN(C)CC3)cc2)c2c1[C@@H](C)CN(c1ccc(C(=O)N(C)C)cn1)C2 [Example 601, (S)-5-(5-(dimethylcarbamoyl)pyridin-2-yl)-1-isopropyl-7-methyl-N-(4-((1-methylpiperidin-4-yl)carbamoyl)benzyl)-4,5,6,7-tetrahydro-1H-pyrazolo[4,3-c]pyridine-3-carboxamide] | – | – | 312 | IC50 [1, 4]: 2100 nM
CNC1(C)CN(C(=O)Nc2ccc(CNC(=O)c3nn(C(C)C)c4c3CN(c3ccc(C(=O)N(C)C)cc3)C[C@@H]4C)cc2)C1 [Example 581, (S)-5-(4-(dimethylcarbamoyl)phenyl)-1-isopropyl-7-methyl-N-(4-(3-methyl-3-(methylamino)azetidine-1-carboxamido)benzyl)-4,5,6,7-tetrahydro-1H-pyrazolo[4,3-c]pyridine-3-carboxamide] | – | – | 3 | IC50 [1, 4]: 24 nM
CC(C)n1nc(C(=O)NCc2ccc(NC(=O)N3CCN(C)CC3)cc2)c2c1[C@@H](C)CN(c1ccc(C(=O)N(C)C)cc1)C2 [Example 132, (S)-5-(4-(Dimethylcarbamoyl)phenyl)-1-isopropyl-7-methyl-N-(4-(4-methylpiperazine-1-carboxamido)benzyl)-4,5,6,7-tetrahydro-1H-pyrazolo[4,3-c]pyridine-3-carboxamide] | 3.6 | 0.2 | – | –
CC(C)n1nc(C(=O)NCc2ccc(NC(=O)N3CCN4CCC[C@H]4C3)cc2)c2c1[C@@H](C)CN(c1ccc(C(=O)N(C)C)cc1)C2 [Example 575, (S)-5-(4-(dimethylcarbamoyl)phenyl)-1-isopropyl-7-methyl-N-(4-((S)-octahydropyrrolo[1,2-a]pyrazine-2-carboxamido)benzyl)-4,5,6,7-tetrahydro-1H-pyrazolo[4,3-c]pyridine-3-carboxamide] | – | – | 1 | IC50 [1, 4]: 10 nM
CCn1nc(C(=O)NCc2ccc(NC(=O)N(C)C)cc2)c2c1CCN(c1ccc(N3CCCC3=O)cn1)C2 [Example 36, N-(4-(3,3-Dimethylureido)benzyl)-1-ethyl-5-(5-(2-oxopyrrolidin-1-yl)pyridin-2-yl)-4,5,6,7-tetrahydro-1H-pyrazolo[4,3-c]pyridine-3-carboxamide] | 254 | 24 | – | –
